What was measured:
[1] = target: Matrix metalloproteinase-9 (Homo sapiens, UniProt P14780); format: cell-based;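 note: inhibition of isolated MMP-9 enzyme activity toward a synthetic peptide substrate, from the DrugMatrix protease screening panel; in other assays of this panel Not Active means under 50% inhibition at 10 µM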
[2] = target: 5-hydroxytryptamine receptor 1B (Rattus norvegicus, UniProt P28564); format: cell membranes, Wistar, Cerebral cortex, Membrane; note: in other assays of this panel Not Active means under 50% inhibition at 10 µM
Chain of 5-hydroxytryptamine receptor 1B (P28564 whole entry): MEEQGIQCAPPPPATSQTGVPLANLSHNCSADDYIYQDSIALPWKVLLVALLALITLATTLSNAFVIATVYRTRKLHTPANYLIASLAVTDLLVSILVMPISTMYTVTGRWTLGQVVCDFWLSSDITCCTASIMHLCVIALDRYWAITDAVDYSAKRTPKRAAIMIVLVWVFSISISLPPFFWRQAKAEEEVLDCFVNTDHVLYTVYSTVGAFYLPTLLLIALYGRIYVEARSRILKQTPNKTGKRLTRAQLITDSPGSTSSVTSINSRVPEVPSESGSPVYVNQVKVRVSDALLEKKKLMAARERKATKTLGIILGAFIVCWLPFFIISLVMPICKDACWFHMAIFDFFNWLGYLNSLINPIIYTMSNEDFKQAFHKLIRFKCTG

[3] = DRUGMATRIX: Calcium Channel Type L, Phenylalkylamine radioligand binding (ligand: [3H] (-)-Desmethoxyverapamil (D-888)); format: cell membranes, Rattus norvegicus, Wistar, Brain, Membrane; settings: Not Active = under 50% inhibition at 10 µM
Calcitonin receptor = target: T1, Calcitonin receptor (Homo sapiens, UniProt P30988); format: cell membranes, Membrane; settings: t47d; note: in other assays of this panel Not Active means under 50% inhibition at 10 µM
T1 sequence (P30988 whole entry): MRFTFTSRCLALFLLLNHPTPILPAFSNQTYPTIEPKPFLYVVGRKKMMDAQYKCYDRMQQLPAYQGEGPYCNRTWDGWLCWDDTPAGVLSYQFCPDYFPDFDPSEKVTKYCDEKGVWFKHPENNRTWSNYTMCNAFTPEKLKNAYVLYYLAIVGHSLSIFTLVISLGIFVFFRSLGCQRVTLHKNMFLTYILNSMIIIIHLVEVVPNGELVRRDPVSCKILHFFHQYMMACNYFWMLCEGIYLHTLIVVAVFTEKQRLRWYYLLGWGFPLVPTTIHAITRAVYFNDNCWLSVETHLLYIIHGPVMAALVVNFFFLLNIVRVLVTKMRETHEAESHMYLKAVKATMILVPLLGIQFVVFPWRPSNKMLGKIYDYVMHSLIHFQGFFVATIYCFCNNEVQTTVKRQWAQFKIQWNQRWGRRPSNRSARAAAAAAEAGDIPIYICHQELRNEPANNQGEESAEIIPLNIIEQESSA

[4] = target: Sodium-dependent dopamine transporter (Homo sapiens, UniProt Q01959); test: DRUGMATRIX: Dopamine Transporter radioligand binding (ligand: [125I] RTI-55); format: cell membranes, CHO-K1, Membrane; settings: cho-k1; Not Active = under 50% inhibition at 10 µM
Chain of Sodium-dependent dopamine transporter (Q01959 whole entry): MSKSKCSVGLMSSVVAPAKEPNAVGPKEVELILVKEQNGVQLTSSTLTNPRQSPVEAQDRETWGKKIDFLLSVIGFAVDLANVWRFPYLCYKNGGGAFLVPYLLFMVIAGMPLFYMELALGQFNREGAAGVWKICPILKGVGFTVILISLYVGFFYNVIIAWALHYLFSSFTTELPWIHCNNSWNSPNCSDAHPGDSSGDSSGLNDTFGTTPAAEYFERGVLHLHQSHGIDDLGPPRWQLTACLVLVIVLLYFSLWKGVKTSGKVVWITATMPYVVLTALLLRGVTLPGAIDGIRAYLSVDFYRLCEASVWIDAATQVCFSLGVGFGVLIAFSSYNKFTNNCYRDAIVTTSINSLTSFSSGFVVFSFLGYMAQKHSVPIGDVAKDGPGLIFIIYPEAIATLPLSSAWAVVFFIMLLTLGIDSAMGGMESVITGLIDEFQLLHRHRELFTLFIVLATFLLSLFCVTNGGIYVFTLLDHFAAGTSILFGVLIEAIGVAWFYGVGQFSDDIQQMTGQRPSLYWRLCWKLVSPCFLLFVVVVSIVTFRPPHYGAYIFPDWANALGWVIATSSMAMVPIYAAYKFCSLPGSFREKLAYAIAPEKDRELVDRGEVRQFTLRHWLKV

[5] = DRUGMATRIX: GABAA, Muscimol, Central radioligand binding (ligand: [3H] Muscimol); format: cell membranes, Rattus norvegicus, Wistar, Brain, Membrane; settings: Not Active = under 50% inhibition at 10 µM
[6] = DRUGMATRIX: Platelet-Derived Growth Factor (PDGF) radioligand binding (ligand: [125I] PDGF); format: cell-based; settings: nih3t3; Not Active = under 50% inhibition at 10 µM

Chain of Matrix metalloproteinase-9 (P14780 whole entry): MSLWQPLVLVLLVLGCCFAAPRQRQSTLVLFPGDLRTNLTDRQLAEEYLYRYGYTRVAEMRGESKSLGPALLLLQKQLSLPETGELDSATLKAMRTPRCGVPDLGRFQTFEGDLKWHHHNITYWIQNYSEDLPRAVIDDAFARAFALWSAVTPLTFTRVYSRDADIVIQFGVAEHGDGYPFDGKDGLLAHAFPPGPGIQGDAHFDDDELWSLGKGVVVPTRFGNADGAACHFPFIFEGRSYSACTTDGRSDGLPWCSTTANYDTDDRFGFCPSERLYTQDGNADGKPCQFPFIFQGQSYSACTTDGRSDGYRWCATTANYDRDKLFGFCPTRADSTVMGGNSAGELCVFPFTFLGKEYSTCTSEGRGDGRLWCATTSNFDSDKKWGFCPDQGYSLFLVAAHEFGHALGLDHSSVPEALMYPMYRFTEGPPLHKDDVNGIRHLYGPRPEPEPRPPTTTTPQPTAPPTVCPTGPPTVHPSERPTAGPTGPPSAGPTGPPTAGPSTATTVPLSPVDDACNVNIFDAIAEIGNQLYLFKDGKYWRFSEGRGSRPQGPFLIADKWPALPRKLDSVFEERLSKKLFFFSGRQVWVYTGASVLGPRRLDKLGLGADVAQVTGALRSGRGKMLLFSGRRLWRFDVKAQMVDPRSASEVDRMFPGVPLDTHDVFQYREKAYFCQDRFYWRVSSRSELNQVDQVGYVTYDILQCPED

Cc1ccc(Cl)c(Nc2ccccc2C(=O)O)c1Cl [MECLOFENAMIC ACID]
Not Active: IC50 [1] | IC50 [2] | IC50 [3] | Ki [3] | IC50 (Calcitonin receptor) | IC50 [4] | IC50 [5] | Ki [5] | IC50 [6] | Ki [6]

CCOc1cc(N)c(Cl)cc1C(=O)NCC1CN(Cc2ccc(F)cc2)CCO1 (stereo not given) [MOSAPRIDE]
Not Active: IC50 [1] | IC50 [2] | IC50 [3] | Ki [3] | IC50 (Calcitonin receptor) | IC50 [4] | IC50 [5] | Ki [5] | IC50 [6] | Ki [6]

C1CCN2C[C@@H]3C[C@@H](CN4CCCC[C@@H]34)[C@H]2C1 [SPARTEINE]
Not Active: IC50 [1] | IC50 [2] | IC50 [3] | Ki [3] | IC50 (Calcitonin receptor) | IC50 [4] | IC50 [5] | Ki [5] | IC50 [6] | Ki [6]

CO[C@@H]1[C@@H](OC)[C@H](C)[C@@](O)(CC(=O)O)O[C@H]1[C@H](C)[C@H]1O[C@@]2(CC[C@@](C)([C@H]3CC[C@@](C)([C@@H]4O[C@@H]([C@H]5O[C@](C)(O)[C@H](C)C[C@@H]5C)C[C@@H]4O[C@@H]4C[C@H](OC)[C@@H](OC)[C@H](C)O4)O3)O2)C[C@H](O)[C@H]1C.N [MADURAMICIN]
Not Active: IC50 [1] | IC50 [2] | IC50 [3] | Ki [3] | IC50 (Calcitonin receptor) | IC50 [4] | IC50 [5] | Ki [5] | IC50 [6] | Ki [6]

CN1C(=O)OC(C)(C)C1=O [TRIMETHADIONE]
Not Active: IC50 [1] | IC50 [2] | IC50 [3] | Ki [3] | IC50 (Calcitonin receptor) | IC50 [4] | IC50 [5] | Ki [5] | IC50 [6] | Ki [6]

CC1(C)[C@H](C(=O)O)N2C(=O)C[C@H]2S1(=O)=O [SULBACTAM]
Not Active: IC50 [1] | IC50 [2] | IC50 [3] | Ki [3] | IC50 (Calcitonin receptor) | IC50 [4] | IC50 [5] | Ki [5] | IC50 [6] | Ki [6]

— ChEMBL document CHEMBL1909046, “DrugMatrix in vitro pharmacology data”
